Results on 5 compounds are retold here after paper PMC11284802 (Journal of Medicinal Chemistry, 2024).

Molecules are shown by their SMILES.

Series [1] has as its system mouse hepatitis virus (MHV). Description: MHV assay. The series is classed as cell-based.
Series [2] can be described thus: Mouse liver microsomal stability. Type of series: in vitro ADME. Particulars: male, CD-1, mouse, liver microsomes, pH 7.4. (In general: Liver microsomes are a subcellular fraction often used to study metabolism.)
A short description of series [3]: Human liver microsomal CLint. Type of series: in vitro ADME. Particulars: liver microsomes.
The nature of series [4]: Mouse hepatocyte stability. The series is classed as in vitro ADME. As to conditions: male, CD-1, mouse, cryopreserved hepatocytes.
Series [5] can be described thus: Human hepatocyte stability. The series is classed as in vitro ADME. Particulars: cryopreserved hepatocytes.
Series [6] deals with phosphorylation of CSNK2 substrate EIF2S2. Briefly: Inhibition of EIF2S2 phosphorylation in vitro. The series is classed as cell-based, human. Particulars: A549-ACE2 cells, 1 or 5 μM, 24 h.
In series [7] the test system is A549-ACE2 cells. Briefly: LDH cytotoxicity assay. Type of series: cell-based, human. As to conditions: concentrations below 10 μM.
Series [8] is described as follows: Plasma stability. Particulars: human plasma, 37 °C, 0 and 6 h. Type of series: in vitro ADME.
Series [9] has as its system EIF2S2 (phospho-Ser2). Briefly: In vivo CSNK2 inhibition. Set-up: species or system CD-1 mice. As to conditions: 10 mg/kg i.p. b.i.d., 36 h, vs vehicle.
The subject of series [10] is AKT (phospho-Ser129). Briefly: In vivo CSNK2 inhibition. Set-up: species or system CD-1 mice. Particulars: 10 mg/kg i.p. b.i.d., 36 h, vs vehicle.
Series [11] concerns the target T1, DYRK1A (Homo sapiens, UniProt Q13627). Description: NanoBRET dose-response, off-target kinase. Type of series: cell-based. As to conditions: poor assay window. (In general: In BRET a luciferase serves as donor, and the signal depends on an acceptor being close.)
Series [12] addresses DAPK2 (Homo sapiens, UniProt Q9UIK4). Briefly: NanoBRET K192 panel. The series is classed as cell-based. Particulars: read-out: NanoBRET K192 % occupancy at 10 μM, DAPK2.
Series [13] addresses T2, HIPK4 (Homo sapiens, UniProt Q8NE63).
T2 sequence (Q8NE63 1-616): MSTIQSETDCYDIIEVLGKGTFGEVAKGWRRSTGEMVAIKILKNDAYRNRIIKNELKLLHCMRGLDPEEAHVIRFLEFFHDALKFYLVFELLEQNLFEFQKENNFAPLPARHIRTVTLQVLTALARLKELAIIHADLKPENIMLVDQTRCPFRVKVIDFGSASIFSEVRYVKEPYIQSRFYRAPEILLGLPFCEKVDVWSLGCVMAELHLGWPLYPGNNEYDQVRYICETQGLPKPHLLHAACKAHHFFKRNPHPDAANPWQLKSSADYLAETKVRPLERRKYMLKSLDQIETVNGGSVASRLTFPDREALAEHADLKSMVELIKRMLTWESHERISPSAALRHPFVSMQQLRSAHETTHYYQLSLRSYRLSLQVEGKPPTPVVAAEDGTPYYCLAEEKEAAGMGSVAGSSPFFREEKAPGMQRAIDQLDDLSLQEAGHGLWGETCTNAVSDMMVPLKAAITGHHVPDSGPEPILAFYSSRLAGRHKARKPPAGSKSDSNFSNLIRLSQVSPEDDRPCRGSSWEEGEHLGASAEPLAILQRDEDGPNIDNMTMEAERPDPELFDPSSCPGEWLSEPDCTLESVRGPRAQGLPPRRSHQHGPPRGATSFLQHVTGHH
Description: NanoBRET K192 panel. The series is classed as cell-based. Particulars: read-out: NanoBRET K192 % occupancy at 10 μM, HIPK4.

The target in series [14] is CLK4 (Homo sapiens, UniProt Q9HAZ1). Briefly: NanoBRET K192 panel. As to conditions: read-out: NanoBRET K192 % occupancy at 10 μM, CLK4. The series is classed as cell-based.
CLK4, sequence (Q9HAZ1 whole entry): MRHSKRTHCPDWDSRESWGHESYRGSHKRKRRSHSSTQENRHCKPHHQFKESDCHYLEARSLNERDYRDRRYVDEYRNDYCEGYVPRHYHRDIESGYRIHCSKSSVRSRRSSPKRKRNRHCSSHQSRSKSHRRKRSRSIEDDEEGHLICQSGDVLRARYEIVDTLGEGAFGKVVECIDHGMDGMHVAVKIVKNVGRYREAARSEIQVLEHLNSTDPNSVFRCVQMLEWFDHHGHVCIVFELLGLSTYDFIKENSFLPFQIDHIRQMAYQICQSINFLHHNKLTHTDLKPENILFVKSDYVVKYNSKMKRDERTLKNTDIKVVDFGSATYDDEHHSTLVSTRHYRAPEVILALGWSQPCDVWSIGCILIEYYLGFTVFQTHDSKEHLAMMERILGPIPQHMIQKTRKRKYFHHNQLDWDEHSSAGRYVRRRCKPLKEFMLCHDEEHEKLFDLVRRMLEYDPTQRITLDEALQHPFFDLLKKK
Series [15] deals with PHKG1 (Homo sapiens, UniProt Q16816). Description: NanoBRET K192 panel. The series is classed as cell-based. Particulars: read-out: NanoBRET K192 % occupancy at 10 μM, PHKG1.
PHKG1, sequence (Q16816 whole entry): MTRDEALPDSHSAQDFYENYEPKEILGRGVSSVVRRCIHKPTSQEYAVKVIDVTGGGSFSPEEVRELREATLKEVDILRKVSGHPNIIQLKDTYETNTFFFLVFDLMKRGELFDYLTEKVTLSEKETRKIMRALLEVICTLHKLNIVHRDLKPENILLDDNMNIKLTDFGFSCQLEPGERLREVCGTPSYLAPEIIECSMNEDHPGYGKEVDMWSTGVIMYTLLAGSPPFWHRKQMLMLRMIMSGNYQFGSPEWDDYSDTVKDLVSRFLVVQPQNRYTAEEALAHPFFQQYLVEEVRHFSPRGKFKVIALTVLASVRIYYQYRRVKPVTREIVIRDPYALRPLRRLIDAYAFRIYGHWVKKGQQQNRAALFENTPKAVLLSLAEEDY
For series [16], the target named is T1, DYRK1A. Description: NanoBRET K192 panel. Type of series: cell-based. As to conditions: read-out: NanoBRET K192 % occupancy at 10 μM, DYRK1A.

DAPK2, sequence (Q9UIK4 whole entry): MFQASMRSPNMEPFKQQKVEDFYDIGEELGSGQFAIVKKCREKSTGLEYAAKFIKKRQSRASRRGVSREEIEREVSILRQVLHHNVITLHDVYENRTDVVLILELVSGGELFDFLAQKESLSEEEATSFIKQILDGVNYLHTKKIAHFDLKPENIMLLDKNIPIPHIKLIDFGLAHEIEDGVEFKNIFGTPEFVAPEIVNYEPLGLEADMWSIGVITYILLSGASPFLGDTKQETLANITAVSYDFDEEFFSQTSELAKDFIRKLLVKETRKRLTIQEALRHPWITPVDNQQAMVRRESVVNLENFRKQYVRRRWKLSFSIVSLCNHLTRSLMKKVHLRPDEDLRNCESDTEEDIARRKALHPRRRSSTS

In the case of `O=c1nc(NO)ccn1[C@@H]1O[C@H](CO)[C@@H](O)[C@H]1O` [EIDD-1931, reference compound], the IC50 (commonly the concentration needed to halve the response being measured) in series [1] (read-out: MHV IC50, positive control of the assay) is 1.2 µM.

On to `CC(=O)Nc1cccc(Nc2cc(NC3CC3)n3ncc(C#N)c3n2)c1` [Compound 3, N-(3-((3-Cyano-7-(cyclopropylamino)pyrazolo[1,5-a]pyrimidin-5-yl)amino)phenyl)acetamide], for which the fraction remaining (as a rule, what is left of the initial amount, in per cent) at 0.5 h, 5 μM in series [2] is 22%. The CLint scaled (commonly a measure of how fast metabolising enzymes remove a compound, apart from limits set by blood flow) at 1 h in series [3] came out at 25 mL/min/kg. Also, the CLint scaled at 2 h, 1 µM was determined as 520 mL/min/kg in [4] and 58 mL/min/kg in [5].

As for `N#Cc1cnn2c(NC3CC3)cc(Nc3cccc(-n4cnnc4)c3)nc12` [Compound 14, 5-((3-(4H-1,2,4-Triazol-4-yl)phenyl)amino)-7-(cyclopropylamino)pyrazolo[1,5-a]pyrimidine-3-carbonitrile], in series [2], the fraction remaining at 0.5 h, 5 μM is 74%. The compound also came in with a CLint scaled at 1 h in [3] of 7.6 mL/min/kg. Further, the CLint scaled at 2 h, 1 µM in series [4] came to 160 mL/min/kg; in [5], 16 mL/min/kg.

Regarding `CN[C@H]1CCCN(c2ccc(Nc3cc(NC4CC4)n4ncc(C#N)c4n3)cc2-n2cnnc2)C1` [Compound 69, (S)-7-(Cyclopropylamino)-5-((4-(3-(methylamino)piperidin-1-yl)-3-(4H-1,2,4-triazol-4-yl)phenyl)amino)pyrazolo[1,5-a]pyrimidine-3-carbonitrile], the “fold decrease in MHV potency” value in series [1] (relative to 68) was determined as 3 fold.

As to `CCN(CCN)c1ccc(Nc2cc(NC3CC3)n3ncc(C#N)c3n2)cc1-n1cnnc1` [Compound 53, 5-((4-((2-Aminoethyl)(ethyl)amino)-3-(4H-1,2,4-triazol-4-yl)phenyl)amino)-7-(cyclopropylamino)pyrazolo[1,5-a]pyrimidine-3-carbonitrile], the “phosphorylation levels of CSNK2 substrate EIF2S2” value in [6] is on record as “reduction in phosphorylation levels”. Also, the “cell viability by LDH assay” value in series [7] is “No decrease in cell viability”. In series [8], the plasma stability result is reported as “stable in plasma”. Moreover, the “phosphorylation of Ser2 of EIF2S2 in mouse lung” value in series [9] was “no statistically significant reduction”. Also, the “phosphorylation of Ser129 of AKT in mouse lung” value in [10] was “no statistically significant reduction”. In addition, the “DYRK1A NanoBRET dose-response occupancy” value in [11] is reported as “d Poor assay window observed but no occupancy observed up to 3 μM. n.d. = not determined”. Further, the receptor occupancy at 10 µM in series [12], in series [13], in series [14], in series [15] and in series [16] was 50 to 75% in each case.
